Experimental data reported in US20240299457A1, “METHODS FOR TREATING DISEASE ASSOCIATED WITH SENESCENCE” (Steadman Philippon Research Institute, priority 2019, published 2024).
Entries after “also recorded” stand apart in the source; their conditions may differ.

Tests used:
senescent CD3+ T-cells = assay: Senescent peripheral blood CD3+ T-cells before and after oral Fisetin, C12FDG flow cytometry (person); assay type: in vivo, human; conditions: CD3+ cells after Fisetin treatment, 100 mg per day for 45 days
Description: Whole blood was collected from a subject into 50 ml Syringe containing ACD-A and set on a rocker. SepMate tubes (Stem Cell Technologies) were prepared with 15 ml Lymphoprep in a sterile environment. 10 ml whole blood were aliquoted into 50 ml conical tubes. 500 μl (50 μl/ml) RosetteSep (Stem Cell Technologies) was added to 10 mL sample of blood. For other blood samples, total PBMCs were collected as described below without T-cell enrichment for comparison. The mixture was incubated 10 min at room temperature (RT). An equal volume dilution medium (DM-sterile PBS and 2% FBS) was added to the sample and mixed gently. The diluted sample was slowly added to the SepMate tube containing Lymphoprep density gradient medium. The mixture was centrifuged at 1200×g for 10 minutes, brake on. The enriched cells were collected by pouring supernatant into a new tube. […]
Senescent cells were treated with Fisetin and then further characterized using flow cytometry (as described in Example 4, above). Peripheral Blood CD3+ T-cells from a person before & after Fisetin treatment (100 mg per day for 45 days) were evaluated for senescence and for senescent cell populations. Before treatment, the subject measured about 29% senescent cells, and after treatment, the subject measured about 4% senescent cells (data not shown).

mice OA models = conditions: cited from earlier work
Zmpste24−/− mice [1] = assay: Micro-CT analysis of bone in progeroid Z24−/− mice given senolytic drugs; assay type: in vivo, mouse
Description: (§1) Adult progeroid Z24−/− mice were administered senolytic drugs via oral gavage (150 μl volume) starting at 2.5 to 3.0 months of age. D/Q (5 mg/kg: 50 mg/kg in 10% PEG400/5.0% DMSO) was given as a single dose at 2.5 months or multi-dose at 2.5, 3.0, 3.5, 4.0, 4.5, and 5.0 months. Both single and multi-dose DQ mice were sacrificed at 5 months. FIS (100 mg/kg in 90% PEG400/10.0% ethanol) treated mice were given a total of 4 weekly doses of drug starting at 3.0 months of age, then sacrificed at 4.0 months of age. For 17-DMAG treatments (10 mg/kg, 1% DMSO-PBS), mice were treated 3 times per week starting at 2 months of age then sacrificed at 4 months of age.
For Fisetin treatments, mice were imaged using the explore Locus Utra Pre-Clinical CT Scanner (GE Healthcare, London, ON) through the pre-Clinical CT Core Facility with the following acquisition settings: 140 kVp, 22 mA with 16 s rotation/exposure. Non-cardiac gated CT images were acquired at all-time points. Simple back projections were obtained from the […] image reconstruction and exported as DICOM images. Image analysis was performed using the OsiriX software. Qualitative analysis of the bones was performed in 2D and 3D reconstructions using OsiriX. MicroView imaging software was also used for the quantitative analysis of the bone mineral density.
(§2) Z24−/−mice were treated with Fisetin weekly for 4 weeks (100 mg/kg) starting at 3 months of age then sacrificed at 4 months of age. 4 months was chosen as a sacrifice time (versus 5 months) given the more advanced pathology that occurred at 5 months, a time when therapies might have negligible effects like seen in D+Q treated animals.

low passage (<p4) ADSCs = assay: CellTiter 96 AQueous Cell Proliferation Assay (cell toxicity); assay type: cell-based, human
Description: Banked ADSCs isolated from person three, person four, person two, and person one were purchased and cultured with normal growth media (DMEM/F:12, 10% FBS, and 1% penicillin/streptomycin).
Fisetin was added to growth media and treated on cells for 24 hours. Following treatment, the media was changed to normal growth media for 24 hours before being used for cell toxicity, immunofluorescence, or flow cytometry.
The CellTiter 96® AQueous Cell Proliferation Assay was used to determine the toxicity of 50 μM, 25 μM, and 1 μM Fisetin on low passage (<p4) cells. Cells were seeded at 40,000 cells/well in a 12-well plate. After adhering overnight, the cells were treated with 50 μM, 25 μM, and 1 μM of Fisetin for 24 hours. After treatment, the media was changed back to normal growth media for another 24 hours. The cells were then treated with the CellTiter 96 AQueous Cell Proliferation Assay following the manufacturer's protocol. Values are relative to untreated, control cells.

C12FDG+ T-Cells = assay: Bright and dim C12FDG+ T-cells in five patients treated with Fisetin; assay type: in vivo, human
Description: A certified phlebotomist used a 19-gauge butterfly needle to perform a standard venipuncture from the antecubital (AC) area, forearm or hand vein. Approximately 35 mL of blood was drawn into one 30 cc syringe (with ACD-A) and one 5 cc (without ACD-A) syringe. […] For total PBMCs and enriched T-Cells, SepMate™ tubes (Stem Cell Technologies) were used following manufactures protocol with Lymphoprep™ (Stem Cell Technologies) gradient centrifugation. Specifically, in separate tubes, CD3+ T-Cells were enriched using the RosetteSep™ commercial kit following manufactures instructions (Stem Cell Technologies #15021). A portion of cells (enriched T-cells and total PBMCs) were stained with 30 μM C12FDG in general culture media supplemented with 10% FBS and analyzed with flow cytometry (Guava EasyCyte, Luminex). To assess the percent, number, and concentration (cell/ml) of senescent CD3+ T-cells and PBMCs, settings were adjusted first using an unstained control (i.e., cells not treated with C12FDG). First, thresholds were set for FSC and SSC to catch cellular events. Next the green channel gain controls were set so that the background events fall between the 1st and second decade. […] Samples were ran in triplicate with water-only runs every 5 wells. Five patients with an age range from 56-77 years were treated with Fisetin at 100 mg/day for 30-45 days.

Zmpste24−/− mice [2] = assay: Transcript levels of senescence marker and SASP factors in tissues of Z24−/− mice; assay type: in vivo, mouse; conditions: 100 mg/kg weekly
Description: as §1, §2

[3] = tested on: senescence-associated heterochromatin foci (SAHF) in ADSCs; assay: Immunofluorescence of senescence-associated heterochromatin foci (H3K9, γ-H2AX) in ADSCs; assay type: cell-based, human; conditions: 50 μM Fisetin
Description: Specifically, the cells were maintained in T-75 culture flasks using normal growth media (DMEM:F-12 with 10% FBS and 1% penicillin/streptomycin). At 70-90% confluency, the cells were passaged and reseeded in the flasks at a 1:4 dilution. At their respective testing passage number, cells were plated into chamber slides for SAHF staining at a density of 5,000 cells/cm^2. Cells were seeded in triplicate for each group and incubated to adhere overnight. The following day, cells were fixed with cold 4% paraformaldehyde and stained with the H2AX antibody using a 1:150 dilution and the H3K9 antibody using a 1:250 dilution. DAPI was also used to stain the nuclei. Five images per well and three wells per group were imaged using the Nikon Eclipse Ni-U microscope. Cells positive for the H2AX and H3K9 antibodies were quantified using the ImageJ software.
Each cell type was given 3 replicate wells, and each well was imaged 6 times, for a total of 18 images per group. Using an Image J program, the number of cells positive for each marker was quantified.
To determine Fisetin's senolytic ability in vitro, based on the data from the preceding example, the 50 μM Fisetin concentration was used to treat YF and OF cells. Senescent cells were quantified by immunofluorescence using ? -H2AX and H3K9. Similarly, YM and OM cells were quantified using C12FDG for flow cytometry. […]

[4] = tested on: SASP factors IL-6, IL-8, MCP-1; assay: SASP factor quantification in ADSC culture media (Milliplex); assay type: cell-based, human; conditions: after Fisetin treatment, media 24 hours
Description: For SASP detection, the media were collected after incubating with the cells for 24 hours, centrifuged at 2,000×g for ten minutes, transferred to new microcentrifuge tubes, and stored at −80° C. until testing. The Human Adipocyte Milliplex kit using the EMD Millipore Milliplex instrument was used to quantify the SASPs.
Cells were seeded in triplicate for each group using previously described culture methods and seeding densities. After adhering overnight, the media was changed. For the untreated group normal ADSC growth media was used (DMEM:F-12 with 10% FBS and 1% penicillin/streptomycin), and for the treated group 50 μM Fisetin was added. Cells were treated for 24-hours, after which the media was changed back to normal growth media for all groups. After culturing in normal growth media for another 24 hours, the media was collected for SASP quantification or the cells were processed for C12FDG or SAHF staining, as described in the preceding example.
Within the R1 region of FIGS. 4B-4D, cells positive for C12FDG are noted by their respective peaks. […] In all groups, a decrease was indicated. […] 3 replicates were used for each treatment. (FIG. 6).

[5] = tested on: senescent ADSCs (β-galactosidase, C12FDG); assay: C12FDG staining of senescence-associated β-galactosidase with flow cytometry in culture-expanded ADSCs; assay type: cell-based, human
Description: Cells were treated with 100 nM of bafilomycin A1 for 1 hour at 37° C. and 5% CO2. Next, 33 μM C12FDG was added and incubated for 2 hours. Thus, cells were stained with the fluorescent senescence-associated marker C12FDG, collected, and tested for senescence using flow cytometry after 50 μM Fisetin treatment. 3 replicates were used per treatment. The InCyte software was used, and fluorescent gating was determined using unstained control cells.
To determine Fisetin's senolytic ability in vitro, based on the data from the preceding example, the 50 μM Fisetin concentration was used to treat YF and OF cells. Senescent cells were quantified by immunofluorescence using ? -H2AX and H3K9. Similarly, YM and OM cells were quantified using C12FDG for flow cytometry. C12FDG reacts with beta-galactosidase, a biomarker for senescence, to produce a fluorogenic substrate to be detected and quantified by flow cytometry.
Cells were seeded in triplicate for each group using previously described culture methods and seeding densities. After adhering overnight, the media was changed. […] After culturing in normal growth media for another 24 hours, the media was collected for SASP quantification or the cells were processed for C12FDG or SAHF staining, as described in the preceding example.

[6] = Losartan administration; cited from earlier work
[7] = treated versus untreated Z24−/− mice

Compound: O=c1c(O)c(-c2ccc(O)c(O)c2)oc2cc(O)ccc12 [Fisetin, 2-(3,4-dihydroxyphenyl)-3,7-dihydroxychromen-4-one]
- Senescent cell concentration (senescent CD3+ T-cells): 7397 +/− 3191 cells/mL
- Total senescent cells (senescent CD3+ T-cells): 191 +/− 73
- cartilage destruction (mice OA models): decreased
- subchondral bone plate thickness (mice OA models): decreased
- synovitis (mice OA models): relieved
- bone density loss (Zmpste24−/− mice [1]; 100 mg/kg weekly for 4 weeks from 3 months of age, micro-CT): significantly attenuate
- protective effects in bone (Zmpste24−/− mice [1]; Z24−/− mice, oral gavage): effective
- Hounsfield unit (HU) intensity (Zmpste24−/− mice [1]; [7]): Significant higher scores
- bone mineral density (BMD) (Zmpste24−/− mice [1]; [7]): Significant higher scores
- specific bone surface (BS/BV) (Zmpste24−/− mice [1]; [7]): Significant higher scores
- toxicity to the health of low passage ADSCs (low passage (<p4) ADSCs; 50 μM): not toxic
- percentage of viable cells among treatments (low passage (<p4) ADSCs; 50 μM, 25 μM, 1 μM, YF, OF, YM, OM, relative to untreated control cells): no significant difference
- toxicity to ADSCs (low passage (<p4) ADSCs; 1-50 μM, 24 hours treatment): non-toxic
- ADSC viability and proliferation (low passage (<p4) ADSCs; Fisetin exposure): not hindered
- reduction in the percent of C12FDG+ cells (dim, early stage) (C12FDG+ T-Cells; 100 mg/day for 30-45 days): 1-2 fold
- bright cells, mean (C12FDG+ T-Cells; P19, treated/post-treated): 1.15%
- dim cells, mean (C12FDG+ T-Cells; P19, treated/post-treated): 26.70%
- bright cells, mean (C12FDG+ T-Cells; P50, treated/post-treated): 0.60%
- dim cells, mean (C12FDG+ T-Cells; P50, treated/post-treated): 27.55%
- reduction in bright C12FDG+ T-cells (C12FDG+ T-Cells; patients with high baseline bright cells, 100 mg/day for 30-45 days): 10-20 fold
- transcript levels of IL-6 (Zmpste24−/− mice [2]): reduced
- transcript levels of TGF-β (Zmpste24−/− mice [2]): reduced
- transcript levels of p16INK4a (Zmpste24−/− mice [2]): reduced
- number of cells positive for H3K9 ([3]; OF and YF cells, passages 4 and 18): significantly reduced in all groups
- γ-H2AX positive cells ([3]; low passage OF, low passage YF, high passage YF cells): reduced
- IL-6 concentration [4]: decrease
- IL-8 concentration [4]: decrease
- MCP-1 concentration [4]: decrease
- % cells positive for C12FDG (senescence) ([5]; 50 μM Fisetin, 24 hours, passages 6, 8, 10): significantly reduced; also recorded: reduced at every passage
- count of the peak representing senescent cells (histogram) ([5]; cells treated with 50 μM Fisetin): about 20

Compound: CCCCc1nc(Cl)c(CO)n1Cc1ccc(-c2ccccc2-c2nn[nH]n2)cc1 [Losartan]
- microfracture for cartilage repair [6]: enhance
